Where “and” joins values, the source holds several entries; their conditions need not be identical. Equal entries are not always repeated. Toxic doses and inconclusive results are not listed. Starred links: 1 amine or outer side, 2 acyl side, 3 side chain; linkers in the order of their positions; H or OH if unused. Positions of bridges follow the written chain, without caps; N, C: chain ends. Non-standard residues stand in square brackets, D forms with d. Residues, ends and D or L forms follow the SMILES beside them. Chains are numbered I, II in the order given. Actinocin(9to1) = Cc1c2oc3c(C)ccc(C(=O)[*:1])c3nc-2c(C(=O)[*:2])c(N)c1=O; aThr = C[C@H](O)[C@H](N)C(=O)O; NMeV = CN[C@H](C(=O)O)C(C)C; Sar = CNCC(=O)O
Test system: AK4 lymphoid leukemia ip, C3AKF1 mice, survival
Experiment: NCI In Vivo Anticancer Drug Screen. Data for tumor model AK4 Lymphoid Leukemia (intraperitoneal) in C3AKF1 (CHKRF1) mice
Details: endpoint: median survival time, higher = longer survival
Description: The antitumor activity of compounds was measured in mice bearing transplantable tumors. Survival or tumor size were measured and the results are expressed as the measurement made in the treated group (T) divided by the measurement made in the vehicle treated control group (C). The tumor model used in this assay is AK4 Lymphoid Leukemia (intraperitoneal) in C3AKF1 (CHKRF1) mice

[1] = dose: 0.5 mg/kg/injection, schedule: Q01DX010 (ip), vehicle: saline
[2] = dose: 1.0 mg/kg/injection, schedule: Q01DX010 (ip), vehicle: saline
[3] = dose: 4.0 mg/kg/injection, schedule: Q01DX010 (ip), vehicle: saline
[4] = dose: 15.0 mg/kg/injection, schedule: Q01DX010 (ip), vehicle: saline
[5] = dose: 30.0 mg/kg/injection, schedule: Q01DX010 (ip), vehicle: saline
[6] = dose: 60.0 mg/kg/injection, schedule: Q01DX010 (ip), vehicle: saline
[7] = dose: 2.0 mg/kg/injection, schedule: Q01DX010 (ip), vehicle: saline
[8] = dose: 8.0 mg/kg/injection, schedule: Q01DX010 (ip), vehicle: saline
[9] = dose: 5.0 mg/kg/injection, schedule: Q01DX010 (ip), vehicle: saline
[10] = dose: 12.5 mg/kg/injection, schedule: Q01DX010 (ip), vehicle: saline
[11] = dose: 25.0 mg/kg/injection, schedule: Q01DX010 (ip), vehicle: saline
[12] = dose: 100.0 mg/kg/injection, schedule: Q01DX010 (ip), vehicle: saline

S=c1nc[nH]c2nc[nH]c12
T/C (dose: 5.0 mg/kg/injection, schedule: Q01DX010 (ip), vehicle: alkali diluted with saline): 100 % of control
T/C (dose: 5.0 mg/kg/injection, schedule: Q01DX Z (ip), vehicle: saline): 93 % of control
T/C (dose: 10.0 mg/kg/injection, schedule: Q01DX010 (ip), vehicle: alkali diluted with saline): 95 % of control and 118 % of control
T/C (dose: 10.0 mg/kg/injection, schedule: Q01DX Z (ip), vehicle: saline): 93 % of control and 96 % of control
T/C (dose: 20.0 mg/kg/injection, schedule: Q01DX010 (ip), vehicle: alkali diluted with saline): 100 % of control and 112 % of control
T/C (dose: 20.0 mg/kg/injection, schedule: Q01DX Z (ip), vehicle: saline): 90 % of control and 106 % of control
T/C (dose: 40.0 mg/kg/injection, schedule: Q01DX010 (ip), vehicle: alkali diluted with saline): 93 % of control and 110 % of control
T/C (dose: 40.0 mg/kg/injection, schedule: Q01DX Z (ip), vehicle: saline): 93 % of control and 96 % of control
T/C (dose: 80.0 mg/kg/injection, schedule: Q01DX010 (ip), vehicle: alkali diluted with saline): 100 % of control
T/C (dose: 80.0 mg/kg/injection, schedule: Q01DX Z (ip), vehicle: saline): 93 % of control and 96 % of control

NC(=O)N(CCCl)N=O
T/C [1]: 162 % of control
T/C [2]: 168 % of control and 200 % of control
T/C [3]: 87 % of control

CCN(CC)C(=S)S
T/C (dose: 125.0 mg/kg/injection, schedule: Q01DX010 (ip), vehicle: saline): 87 % of control
T/C (dose: 250.0 mg/kg/injection, schedule: Q01DX010 (ip), vehicle: saline): 87 % of control
T/C (dose: 500.0 mg/kg/injection, schedule: Q01DX010 (ip), vehicle: saline): 87 % of control
T/C (dose: 1000.0 mg/kg/injection, schedule: Q01DX010 (ip), vehicle: saline): 93 % of control

C[N+](C)(C)c1ncnc2nc[nH]c12
T/C [4]: 100 % of control
T/C [5]: 116 % of control
T/C [6]: 111 % of control
T/C (dose: 120.0 mg/kg/injection, schedule: Q01DX010 (ip), vehicle: saline): 88 % of control

CN[C@H]1CCc2cc(OC)c(OC)c(OC)c2-c2ccc(OC)c(=O)cc21
T/C (dose: 0.63 mg/kg/injection, schedule: Q01DX010 (ip), vehicle: other): 95 % of control and 100 % of control
T/C (dose: 1.25 mg/kg/injection, schedule: Q01DX010 (ip), vehicle: other): 95 % of control and 100 % of control
T/C (dose: 2.5 mg/kg/injection, schedule: Q01DX010 (ip), vehicle: other): 90 % of control and 100 % of control
T/C (dose: 5.0 mg/kg/injection, schedule: Q01DX010 (ip), vehicle: other): 100 % of control and 104 % of control

CN(C)[C@@H]1C(=O)C(C(N)=O)=C(O)[C@@]2(O)C(=O)C3=C(O)c4c(O)cccc4C[C@H]3C[C@@H]12
T/C (dose: 7.5 mg/kg/injection, schedule: Q01DX010 (ip), vehicle: saline): 100 % of control
T/C [4]: 100 % of control and 105 % of control
T/C [5]: 100 % of control
T/C [6]: 94 % of control

CN(C)c1nc(N(C)C)nc(N(C)C)n1
T/C (dose: 18.8 mg/kg/injection, schedule: Q01DX010 (ip), vehicle: saline): 94 % of control
T/C (dose: 37.5 mg/kg/injection, schedule: Q01DX010 (ip), vehicle: saline): 100 % of control
T/C (dose: 75.0 mg/kg/injection, schedule: Q01DX010 (ip), vehicle: saline): 94 % of control
T/C (dose: 150.0 mg/kg/injection, schedule: Q01DX010 (ip), vehicle: saline): 100 % of control

CC(=O)NC1=C(N2CC2)C(=O)C(NC(C)=O)=C(N2CC2)C1=O
T/C [1]: 152 % of control
T/C [2]: 152 % of control
T/C [7]: 88 % of control
T/C (dose: 125.0 micrograms/kg/injection, schedule: Q01DX010 (ip), vehicle: saline): 100 % of control
T/C (dose: 250.0 micrograms/kg/injection, schedule: Q01DX010 (ip), vehicle: saline): 111 % of control
T/C (dose: 500.0 micrograms/kg/injection, schedule: Q01DX010 (ip), vehicle: saline): 116 % of control

CC(CCC(C)OS(C)(=O)=O)OS(C)(=O)=O (stereo unspecified)
T/C [7]: 88 % of control
T/C [3]: 88 % of control
T/C [8]: 94 % of control

C1CN1c1nc(N2CC2)nc(N2CC2)n1
T/C (dose: 0.25 mg/kg/injection, schedule: Q01DX010 (ip), vehicle: saline): 116 % of control
T/C [1]: 150 % of control
T/C [2]: 111 % of control

Cn1c(N)nc2nc[nH]c2c1=S
T/C [9]: 100 % of control
T/C (dose: 10.0 mg/kg/injection, schedule: Q01DX010 (ip), vehicle: saline): 100 % of control and 122 % of control
T/C (dose: 20.0 mg/kg/injection, schedule: Q01DX010 (ip), vehicle: saline): 88 % of control and 105 % of control
T/C (dose: 40.0 mg/kg/injection, schedule: Q01DX010 (ip), vehicle: saline): 88 % of control and 100 % of control
T/C (dose: 80.0 mg/kg/injection, schedule: Q01DX010 (ip), vehicle: saline): 111 % of control

CS(=O)(=O)OCC(O)C(O)C(O)C(O)COS(C)(=O)=O (stereo unspecified)
T/C [10]: 112 % of control
T/C [11]: 100 % of control and 105 % of control
T/C (dose: 50.0 mg/kg/injection, schedule: Q01DX010 (ip), vehicle: saline): 94 % of control
T/C [12]: 87 % of control and 100 % of control
T/C (dose: 200.0 mg/kg/injection, schedule: Q01DX010 (ip), vehicle: saline): 100 % of control

COc1cc(-c2ccc(Nc3ccccc3C(=O)O)c(OC)c2)ccc1Nc1ccccc1C(=O)O
T/C [10]: 112 % of control
T/C [11]: 112 % of control and 122 % of control
T/C [12]: 162 % of control

CCC(=O)O[C@H]1CC[C@H]2[C@@H]3CCC4=CC(=O)CC[C@]4(C)[C@H]3CC[C@]12C
T/C (dose: 125.0 mg/kg/injection, schedule: Q01DX010 (sc), vehicle: steriod suspending solution): 87 % of control
T/C (dose: 250.0 mg/kg/injection, schedule: Q01DX010 (sc), vehicle: steriod suspending solution): 87 % of control
T/C (dose: 500.0 mg/kg/injection, schedule: Q01DX010 (sc), vehicle: steriod suspending solution): 93 % of control
T/C (dose: 1000.0 mg/kg/injection, schedule: Q01DX010 (sc), vehicle: steriod suspending solution): 87 % of control

C=CC(CN1CC1)OC(C)=O (stereo unspecified)
T/C [7]: 90 % of control and 100 % of control
T/C [3]: 95 % of control and 111 % of control
T/C [8]: 88 % of control and 120 % of control
T/C (dose: 16.0 mg/kg/injection, schedule: Q01DX010 (ip), vehicle: saline): 90 % of control

Cc1c2oc3c(C)ccc(C(=O)N[C@@H]4C(=O)N[C@H](C(C)C)C(=O)N5CCC[C@H]5C(=O)N(C)CC(=O)N(C)[C@@H](C(C)C)C(=O)O[C@H]4C)c3nc-2c(C(=O)N[C@@H]2C(=O)N[C@H](C(C)C)C(=O)N3CCC[C@H]3C(=O)N(C)CC(=O)N(C)[C@@H](C(C)C)C(=O)O[C@H]2C)c(N)c1=O (I: [aThr][dV]P[Sar][NMeV] / II: [aThr][dV]P[Sar][NMeV]; ester I:1-I:C, II:1-II:C; linker I:N-II:N via Actinocin(9to1))
T/C (dose: 12.5 micrograms/kg/injection, schedule: Q01DX010 (ip), vehicle: other): 100 % of control and 86 % of control
T/C (dose: 25.0 micrograms/kg/injection, schedule: Q01DX010 (ip), vehicle: other): 95 % of control and 105 % of control
T/C (dose: 50.0 micrograms/kg/injection, schedule: Q01DX010 (ip), vehicle: other): 100 % of control
T/C (dose: 100.0 micrograms/kg/injection, schedule: Q01DX010 (ip), vehicle: other): 100 % of control and 109 % of control

CN(N=O)C(=O)NC(C=O)C(O)C(O)C(O)CO (stereo unspecified)
T/C [6]: 150 % of control
T/C (dose: 90.0 mg/kg/injection, schedule: Q01DX010 (ip), vehicle: saline): 150 % of control

NC(=O)c1ccc(NC(=O)CCC(=O)Nc2ccc(C(N)=O)cn2)nc1
T/C (dose: 0.63 mg/kg/injection, schedule: Q01DX010 (ip), vehicle: saline): 100 % of control
T/C (dose: 1.25 mg/kg/injection, schedule: Q01DX010 (ip), vehicle: saline): 110 % of control
T/C (dose: 2.5 mg/kg/injection, schedule: Q01DX010 (ip), vehicle: saline): 110 % of control
T/C [9]: 100 % of control
